Measurements reported in PubChem BioAssay AID1963851 (Molecular Pharmacology Branch, DTP, NCI, 2024).

System: 188146-221-R-J1-PDC complex spheroid viability
Test: Anticancer human tumor 188146-221-R-J1-PDC patient-derived colon adenocarcinoma cell line growth inhibition [POLQ]
Settings: for IC50: curve of first compound; for viability, T/C: stronger effect = lower value
Method in brief: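 PDC + HUVEC + MSC complex spheroids; POLQ inhibitors ± partner drugs; top conc. at/near clinical Cmax, else 10 microM (SN-38 1 microM), half-log dilutions; 37 degrees C, 5% CO2.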

[1] = second compound 0.0316 µM, first compound 0.0316 µM
[2] = second compound 0.0316 µM, first compound 0.1 µM
[3] = second compound 0.0316 µM, first compound 0.316 µM
[4] = second compound 0.0316 µM, first compound 1 µM
[5] = second compound 0.0316 µM, first compound 3.16 µM
[6] = second compound 0.0316 µM, first compound 10 µM
[7] = second compound 0.1 µM, first compound 0.0316 µM
[8] = second compound 0.1 µM, first compound 0.1 µM
[9] = second compound 0.1 µM, first compound 0.316 µM
[10] = second compound 0.1 µM, first compound 1 µM
[11] = second compound 0.1 µM, first compound 3.16 µM
[12] = second compound 0.1 µM, first compound 10 µM
[13] = second compound 0.316 µM, first compound 0.0316 µM
[14] = second compound 0.316 µM, first compound 0.1 µM
[15] = second compound 0.316 µM, first compound 0.316 µM
[16] = second compound 0.316 µM, first compound 1 µM
[17] = second compound 0.316 µM, first compound 3.16 µM
[18] = second compound 0.316 µM, first compound 10 µM
[19] = second compound 1 µM, first compound 0.0316 µM
[20] = second compound 1 µM, first compound 0.1 µM
[21] = second compound 1 µM, first compound 0.316 µM
[22] = second compound 1 µM, first compound 1 µM
[23] = second compound 1 µM, first compound 3.16 µM
[24] = second compound 1 µM, first compound 10 µM
[25] = second compound 3.16 µM, first compound 0.0316 µM
[26] = second compound 3.16 µM, first compound 0.1 µM
[27] = second compound 3.16 µM, first compound 0.316 µM
[28] = second compound 3.16 µM, first compound 1 µM
[29] = second compound 3.16 µM, first compound 3.16 µM
[30] = second compound 3.16 µM, first compound 10 µM
[31] = second compound 10 µM, first compound 0.0316 µM
[32] = second compound 10 µM, first compound 0.1 µM
[33] = second compound 10 µM, first compound 0.316 µM
[34] = second compound 10 µM, first compound 1 µM
[35] = second compound 10 µM, first compound 3.16 µM
[36] = second compound 10 µM, first compound 10 µM
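Note: spheroids exposed to compounds for seven days.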
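Throughout, for viability, T/C: 100% = DMSO vehicle control viability.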

For CC1COCCN1c1cc(-c2ccnn2C)c2ccnc(-c3ccn[nH]3)c2n1 (stereo not drawn) + Cc1cccc(N(C)C(=O)C2C(O)CCN2c2nc(C)cc(C(F)(F)F)c2C#N)c1, the IC50 (second compound 0.0316 µM) was 0.203 µM, the IC50 (second compound 0.1 µM) was 0.228 µM and the IC50 (second compound 0.316 µM) was 0.248 µM. For the same compound, the IC50 (second compound 1 µM) was 0.336 µM, the IC50 (second compound 3.16 µM) was 0.232 µM and the IC50 (second compound 10 µM) was 0.165 µM. The viability, T/C [1] was 86.4%, the viability, T/C [2] was 63.6% and the viability, T/C [3] was 43.3%. The viability, T/C [4] was 21.8%, the viability, T/C [5] was 21.6% and the viability, T/C [6] was 17.8%. The viability, T/C [7] was 87.6%, the viability, T/C [8] was 72.7% and the viability, T/C [9] was 39.3%. It also gave a viability, T/C [10] of 26.5%, a viability, T/C [11] of 17% and a viability, T/C [12] of 15.7%. The viability, T/C [13] was 92.9%, the viability, T/C [14] was 79.8% and the viability, T/C [15] was 40%. The viability, T/C [16] was 26.5%, the viability, T/C [17] was 18.8% and the viability, T/C [18] was 13.8%. For the same compound, the viability, T/C [19] was 75.8%, the viability, T/C [20] was 73.9% and the viability, T/C [21] was 50.3%. It also gave a viability, T/C [22] of 26.4%, a viability, T/C [23] of 17.5% and a viability, T/C [24] of 15.8%. For the same compound, the viability, T/C [25] was 74.9%, the viability, T/C [26] was 67.6% and the viability, T/C [27] was 44%. It also gave a viability, T/C [28] of 20%, a viability, T/C [29] of 23.3% and a viability, T/C [30] of 16.6%. The viability, T/C [31] was 67.9%, the viability, T/C [32] was 51.5% and the viability, T/C [33] was 47.8%. It also gave a viability, T/C [34] of 25.1%, a viability, T/C [35] of 21.3% and a viability, T/C [36] of 20.2%.

CC1COCCN1c1cc(C2(S(C)(=N)=O)CC2)nc(-c2ccnc3[nH]ccc23)n1 (stereo not drawn) + Cc1cccc(N(C)C(=O)C2C(O)CCN2c2nc(C)cc(C(F)(F)F)c2C#N)c1 gave an IC50 (second compound 0.0316 µM) of 4.9 µM, an IC50 (second compound 0.1 µM) of 4.65 µM and an IC50 (second compound 0.316 µM) of 5.33 µM. It also gave an IC50 (second compound 1 µM) of 4.36 µM, an IC50 (second compound 3.16 µM) of 4.9 µM and an IC50 (second compound 10 µM) of 3.21 µM. The viability, T/C [1] was 108%, the viability, T/C [2] was 92.9% and the viability, T/C [3] was 97.6%. The viability, T/C [4] was 95.7%, the viability, T/C [5] was 65.2% and the viability, T/C [6] was 25.1%. The viability, T/C [7] was 114%, the viability, T/C [8] was 98.3% and the viability, T/C [9] was 93.9%. The viability, T/C [10] was 89.1%, the viability, T/C [11] was 58.7% and the viability, T/C [12] was 27.7%. It also gave a viability, T/C [13] of 98.4%, a viability, T/C [14] of 96.9% and a viability, T/C [15] of 97.9%. It also gave a viability, T/C [16] of 90.2%, a viability, T/C [17] of 68.5% and a viability, T/C [18] of 27.8%. It also gave a viability, T/C [19] of 101%, a viability, T/C [20] of 91% and a viability, T/C [21] of 95.7%. It also gave a viability, T/C [22] of 91.4%, a viability, T/C [23] of 58.2% and a viability, T/C [24] of 28.9%. The viability, T/C [25] was 88.5%, the viability, T/C [26] was 103% and the viability, T/C [27] was 81.4%. The viability, T/C [28] was 83.8%, the viability, T/C [29] was 63.8% and the viability, T/C [30] was 27.2%. It also gave a viability, T/C [31] of 90%, a viability, T/C [32] of 78.5% and a viability, T/C [33] of 88.8%. It also gave a viability, T/C [34] of 62%, a viability, T/C [35] of 53.2% and a viability, T/C [36] of 19.4%.

With COc1ccc([C@@H](O)c2cc(-c3ncnc4cc(N5CCOCC5)ccc34)c(F)cc2Cl)nn1 + Cc1cccc(N(C)C(=O)C2C(O)CCN2c2nc(C)cc(C(F)(F)F)c2C#N)c1 the IC50 (second compound 0.0316 µM) was 5.81 µM, the IC50 (second compound 0.1 µM) was 5.62 µM and the IC50 (second compound 0.316 µM) was 4.69 µM. The IC50 (second compound 1 µM) was 4.67 µM, the IC50 (second compound 3.16 µM) was 4.91 µM and the IC50 (second compound 10 µM) was 1.86 µM. It also gave a viability, T/C [1] of 97.6%, a viability, T/C [2] of 98% and a viability, T/C [3] of 87.9%. For the same compound, the viability, T/C [4] was 89.2%, the viability, T/C [5] was 72% and the viability, T/C [6] was 30.3%. It also gave a viability, T/C [7] of 93.6%, a viability, T/C [8] of 111% and a viability, T/C [9] of 94.3%. It also gave a viability, T/C [10] of 80.4%, a viability, T/C [11] of 61.7% and a viability, T/C [12] of 39.4%. The viability, T/C [13] was 100%, the viability, T/C [14] was 101% and the viability, T/C [15] was 100%. For the same compound, the viability, T/C [16] was 94%, the viability, T/C [17] was 59.4% and the viability, T/C [18] was 32%. The viability, T/C [19] was 97.9%, the viability, T/C [20] was 94.3% and the viability, T/C [21] was 94.4%. It also gave a viability, T/C [22] of 78.7%, a viability, T/C [23] of 59.6% and a viability, T/C [24] of 32.5%. It also gave a viability, T/C [25] of 97.3%, a viability, T/C [26] of 93.3% and a viability, T/C [27] of 90.5%. It also gave a viability, T/C [28] of 73.1%, a viability, T/C [29] of 61.7% and a viability, T/C [30] of 33.8%. The viability, T/C [31] was 88.2%, the viability, T/C [32] was 80.8% and the viability, T/C [33] was 85.9%. The viability, T/C [34] was 56.3%, the viability, T/C [35] was 51.9% and the viability, T/C [36] was 36.9%.

Cn1ncnc1[C@H]1c2n[nH]c(=O)c3cc(F)cc(c23)N[C@@H]1c1ccc(F)cc1 + Cc1cccc(N(C)C(=O)C2C(O)CCN2c2nc(C)cc(C(F)(F)F)c2C#N)c1 was tested, and the IC50 (second compound 0.0316 µM) was over 0.1 µM, the IC50 (second compound 0.1 µM) was over 0.1 µM and the IC50 (second compound 0.316 µM) was over 0.1 µM. It also gave an IC50 (second compound 1 µM) of over 0.1 µM, an IC50 (second compound 3.16 µM) of over 0.1 µM and an IC50 (second compound 10 µM) of over 0.1 µM. For the same compound, the viability, T/C (second compound 0.0316 µM, first compound 0.000316 µM) was 97.2%, the viability, T/C (second compound 0.0316 µM, first compound 0.001 µM) was 97.4% and the viability, T/C (second compound 0.0316 µM, first compound 0.00316 µM) was 91.8%. It also gave a viability, T/C (second compound 0.0316 µM, first compound 0.01 µM) of 98.3%, a viability, T/C [1] of 99.3% and a viability, T/C [2] of 88%. For the same compound, the viability, T/C (second compound 0.1 µM, first compound 0.000316 µM) was 106%, the viability, T/C (second compound 0.1 µM, first compound 0.001 µM) was 107% and the viability, T/C (second compound 0.1 µM, first compound 0.00316 µM) was 101%. It also gave a viability, T/C (second compound 0.1 µM, first compound 0.01 µM) of 84.8%, a viability, T/C [7] of 89.9% and a viability, T/C [8] of 103%. For the same compound, the viability, T/C (second compound 0.316 µM, first compound 0.000316 µM) was 101%, the viability, T/C (second compound 0.316 µM, first compound 0.001 µM) was 104% and the viability, T/C (second compound 0.316 µM, first compound 0.00316 µM) was 101%. The viability, T/C (second compound 0.316 µM, first compound 0.01 µM) was 101%, the viability, T/C [13] was 90.8% and the viability, T/C [14] was 104%. It also gave a viability, T/C (second compound 1 µM, first compound 0.000316 µM) of 107%, a viability, T/C (second compound 1 µM, first compound 0.001 µM) of 99.6% and a viability, T/C (second compound 1 µM, first compound 0.00316 µM) of 105%. It also gave a viability, T/C (second compound 1 µM, first compound 0.01 µM) of 102%, a viability, T/C [19] of 89% and a viability, T/C [20] of 93.5%. It also gave a viability, T/C (second compound 3.16 µM, first compound 0.000316 µM) of 100%, a viability, T/C (second compound 3.16 µM, first compound 0.001 µM) of 105% and a viability, T/C (second compound 3.16 µM, first compound 0.00316 µM) of 95.4%. The viability, T/C (second compound 3.16 µM, first compound 0.01 µM) was 90%, the viability, T/C [25] was 95.4% and the viability, T/C [26] was 94.2%. For the same compound, the viability, T/C (second compound 10 µM, first compound 0.000316 µM) was 96.4%, the viability, T/C (second compound 10 µM, first compound 0.001 µM) was 91.8% and the viability, T/C (second compound 10 µM, first compound 0.00316 µM) was 90.6%. The viability, T/C (second compound 10 µM, first compound 0.01 µM) was 87.8%, the viability, T/C [31] was 90.8% and the viability, T/C [32] was 94.6%.
